Results on 4 compounds are retold here after patent publication US10106572B1, “Supramolecular hacky sacks (SHS), method of synthesis and applications thereof” (University of Puerto Rico, priority 2014, dated 2018).

The nature of data set [1]: Turbidimetry studies, cloud-point temperature (Tcp). The class given is physicochemical. The protocol:
(§1) Solutions of 0.650 mL of ImAGhD2OH were prepared at 5 mM with 4 M KI. In the case of ImAGpD2OH, the solutions prepared were 5 mM with 2 M KI. By following this procedure the following ratio is recommended between ImAGhD2OH (or ImAGpD2OH) with KI salt: 0-10 mM of ImAGhD2OH (or ImAGpD2OH) with 2-4 M KI. To dissolve the solids it was prepared a 0.1 M sodium acetate buffer for pH values of 5, 5.1, 5.2, 5.3, 5.4, 5.5, 5.6, 5.7, 5.8, 5.9. For pH 6-7, PBS from Fisher Scientific was used. The samples were put in the refrigerator (−10° C.) overnight (˜12 h) for equilibration. This sample concentration was used for turbidity experiments, DSC, and DLS experiments. The concentrations of the resulting assemblies of SGQ and f-SHS were calculated in terms of the molecular weights of monomeric 8ArG derivative ImAGpD2OH or ImAGhD2OH.
This Tcp, which is measured by turbidimetry studies in UV-Vis, is the transition temperature to form the cluster of self-arranged supramolecular structures known as supramolecular hacky sacks (SHS). The turbidity measurements were performed at 650 nm using a Varian UV-visible spectrometer, Model Cary Bio-100. The heating rate was adjusted at 2.0° C./min using Cary temperature controller apparatus from Varian.

Data set [2] is described as follows: Differential scanning calorimetry (DSC) of SGQ assemblies. The following applies: for Tt: LCST transition. In kind it is physicochemical. The protocol:
The ΔGcal and ΔScal values shown in this table correspond to those calculated using the values of Tt, Tm, and ΔHcal from the instrument. All ΔG values were calculated at a temperature of 20° C.
Differential Scanning calorimetry (DSC) analyses were performed on a VP-DSC Micro-Calorimeter from MicroCal and Origin (v.7) was used for data processing. For the experiment, the buffer was first degasified and the experiment was carried out as a blank in both sample and reference cell. Then, the sample was degasified, and the blank buffer in the sample cell to be substituted with sample was removed. Afterwards, the experiment was performed with a temperature ramp of 0° C.-80° C. for 4 cycles.
Background: Differential scanning calorimetry records heat flow against a reference as temperature is scanned.

Data set [3] in a line: Isothermal turbidity, transition pH. In kind it is physicochemical. The following applies: for pKa: previously estimated, imidazole-containing ImAG. The protocol: as §1
Before the imidazole modification of ImAGpD2OH and ImAGhD2OH, chalcone imidazole standard derivative (E)-3-(1-methyl-1H-imidazol-2-yl)-1-phenylprop-2-en-1-one (ImAG std) was synthesized by the same aldol condensation method to obtain an estimation of the pKa by measuring the absorbance at different pHs in a Varian UV-visible spectrometer, Model Cary Bio-100 as shown in FIG. 14. For the transition pH measurement, Isothermal measurements at 26.0° C. were performed in a SPECTRAmax 340 microplate reader at 650 nm. In these experiments 100 μL of sample was added in each well in triplicate for pH: 5, 5.1, 5.2, 5.3, 5.4, 5.5, 5.6, 5.7, 5.8, 5.9, 6.0, 6.5, 7.0 and 7.5. After the microplate wells were filled, the microplate was placed in the refrigerator (−10° C.) for equilibration. Afterwards, an 85% weighted curve fit was performed to the obtained graph. According to the standard experiments performed, the pKa of ImAG std is between 5.5 and 6.
Aside from the effect of the pH on the precise assembly of the nanoglobular SGQs, we observed, at 26° C., a pH-responsive phase transition where, at pH 5 the system is in solution, but changing it to pH 7 results in the solution becoming cloudy.

A short description of data set [4]: pKa estimation by UV-VIS absorbance at different pHs. The class given is physicochemical. The following applies: UV absorbance at pH 5-7.5. The text has this: During the synthesis of derivatives ImAGhD2OH and ImAGpD2OH, an ImAG std (with a molecular structure as shown in FIG. 8) was constructed to obtain information of the pKa of the derivative by UV-VIS measurements. This allowed to study the effect of the functionality added in the 8ArG derivative. Derivative (E)-3-(1-methyl-1H-imidazol-2-yl)-1-phenylprop-2-en-1-one (ImAG std), with a chemical formula C13H12N2O, offers an alternative method to determine the pKa without having to perform the entire synthetic sequence for the corresponding compounds ImAGhD2OH and ImAGpD2OH. In the case of ImAG standard, the same procedure as above was followed, but the obtained solid was washed with ether and hexane. ImAG std was characterized as shown in FIG. 9 and FIG. 10 by using ^1H NMR and ^13C NMR, respectively. Yellow solid, mp (125.2-126.3) ° C. […]
Before the imidazole modification of ImAGpD2OH and ImAGhD2OH, chalcone imidazole standard derivative (E)-3-(1-methyl-1H-imidazol-2-yl)-1-phenylprop-2-en-1-one (ImAG std) was synthesized by the same aldol condensation method to obtain an estimation of the pKa by measuring the absorbance at different pHs in a Varian UV-visible spectrometer, Model Cary Bio-100 as shown in FIG. 14. For the transition pH measurement, Isothermal measurements at 26.0° C. were performed in a SPECTRAmax 340 microplate reader at 650 nm. […]

In data set [5] the test system is neuroblastoma (SH-SY5Y) cells. Description: MTT viability assay. The class given is cell-based, human. Particulars: 0.2 μM DOX. Background: Tetrazolium dyes change colour on reduction, which living cells bring about.
Where [6] appears, read: ImAGhD2OH, pH 5.0, calculated at 20° C.
Where [7] appears, read: ImAGhD2OH, pH 5.5, calculated at 20° C.
Setting [8] is: ImAGhD2OH, pH 6:0, calculated at 20° C.
[9] abbreviates: ImAGhD2OH, pH 6.5, calculated at 20° C.
Setting [10] is: ImAGhD2OH, pH 7.0, calculated at 20° C.
Where [11] appears, read: ImAGpD2OH, pH 5.0, calculated at 20° C.
Where [12] appears, read: ImAGpD2OH, pH 7.0, calculated at 20° C.

The structures appear in SMILES notation. “And” between values parts separate entries of the source, which are not always exact repeats. Identical values can stand only once.

In general, pKa refers to the negative logarithm of the acid dissociation constant.

`Cn1ccnc1/C=C/C(=O)c1cccc(-c2nc3c(=O)[nH]c(N)nc3n2[C@H]2C[C@H](OC(=O)CCCCCn3cc(COC(=O)C(C)(CO)CO)nn3)[C@@H](COC(=O)CCCCCn3cc(COC(=O)C(C)(CO)CO)nn3)O2)c1` [ImAGhD2OH]: the ΔTcp entry in data set [1] (between hSGQ and oSGQ) was “≈ 25 °C”. Further, the “cloud-point temperature (Tcp)” value in data set [1] (oSGQ, pH 6-7, 650 nm) is “around 4 °C”; in data set [1] (protonated hSGQ, at pHs and 5.5, 650 nm) it was 29 °C. Besides, the ΔHTm in data set [2] (ImAGhD2OH, pH 5.0) stood at 64.32 kcal/mol; in data set [2] (ImAGhD2OH, pH 5.5) it was 62.58 kcal/mol; in data set [2] (ImAGhD2OH, pH 6:0), 11.20 kcal/mol; in data set [2] (ImAGhD2OH, pH 6.5) it was 11.80 kcal/mol; in data set [2] (ImAGhD2OH, pH 7.0), 15.42 kcal/mol. For the same compound, the ΔSTm in data set [2] (ImAGhD2OH, pH 5.0) was found to be 0.884 kcal/mol · ° C; in data set [2] (ImAGhD2OH, pH 5.5), 0.912 kcal/mol · ° C; in data set [2] (ImAGhD2OH, pH 6:0), 0.272 kcal/mol · ° C; in data set [2] (ImAGhD2OH, pH 6.5), 0.316 kcal/mol · ° C; in data set [2] (ImAGhD2OH, pH 7.0), 0.362 kcal/mol · ° C. Also, the ΔSTt in data set [2] (ImAGhD2OH, pH 5.0) was found to be 0.778 kcal/mol · ° C; in data set [2] (ImAGhD2OH, pH 5.5), 2.704 kcal/mol · ° C; in data set [2] (ImAGhD2OH, pH 6:0), 0.0216 kcal/mol · ° C; in data set [2] (ImAGhD2OH, pH 6.5), 0.0106 kcal/mol · ° C; in data set [2] (ImAGhD2OH, pH 7.0) it was 0.0144 kcal/mol · ° C. In addition, the Tt in data set [2] (ImAGhD2OH, pH 5.0, aqueous solution) was 59.3 °C and 59.26 °C; in data set [2] (ImAGhD2OH, pH 5.5, aqueous solution) it was 54.00 °C; in data set [2] (ImAGhD2OH, pH 6:0, aqueous solution), 5.702 °C; in data set [2] (ImAGhD2OH, pH 6.5, aqueous solution), 4.938 °C; in data set [2] (ImAGhD2OH, pH 7.0, aqueous solution), 5.4 °C and 5.449 °C. Further, the “ΔGT:” value in data set [2] (setting [6]) is 30.67 kcal/mol; in data set [2] (setting [7]), 91.92 kcal/mol; in data set [2] (setting [8]), -0.309 kcal/mol; in data set [2] (setting [9]), -0.160 kcal/mol; in data set [2] (setting [10]), -0.210 kcal/mol. For the same compound, the ΔGTm in data set [2] (setting [6]) was 46.64 kcal/mol; in data set [2] (setting [7]), 44.34 kcal/mol; in data set [2] (setting [8]), 5.76 kcal/mol; in data set [2] (setting [9]) it was 5.48 kcal/mol; in data set [2] (setting [10]), 8.18 kcal/mol. Besides, the Tm in data set [2] (ImAGhD2OH, pH 5.0, melting of SGQ assembly) was 72.7 °C and 72.72 °C; in data set [2] (ImAGhD2OH, pH 5.5, melting of SGQ assembly), 68.64 °C; in data set [2] (ImAGhD2OH, pH 6:0, melting of SGQ assembly), 41.12 °C; in data set [2] (ImAGhD2OH, pH 6.5, melting of SGQ assembly), 37.32 °C; in data set [2] (ImAGhD2OH, pH 7.0, melting of SGQ assembly), 42.6 °C and 42.64 °C. Moreover, the ΔHTt in data set [2] (ImAGhD2OH, pH 5.5) is 146 kcal/mol and 146.0 kcal/mol; in data set [2] (ImAGhD2OH, pH 6:0), 0.123 kcal/mol; in data set [2] (ImAGhD2OH, pH 6.5), 0.0522 kcal/mol; in data set [2] (ImAGhD2OH, pH 7.0), 0.078 kcal/mol and 0.0784 kcal/mol. In addition, the ΔTt result in data set [2] (between oSGQ (pH 7) and hSGQ (pH 5)) is “≈ 53.9 °C”. Also, the pKa in data set [3] is given as 5.7. The “transition pH” value in data set [3] (transmittance at 650 nm, 26° C., at 65% of the transmittance) is on record as “around 5.7”.

In the case of `Cn1ccnc1/C=C/C(=O)c1ccccc1` [ImAG std, (E)-3-(1-methyl-1H-imidazol-2-yl)-1-phenylprop-2-en-1-one], the pKa in data set [4] is 5.5 to 6.

On to `Cn1ccnc1/C=C/C(=O)c1cccc(-c2nc3c(=O)[nH]c(N)nc3n2[C@H]2C[C@H](OC(=O)CCCCn3cc(COC(=O)C(C)(CO)CO)nn3)[C@@H](COC(=O)CCCCn3cc(COC(=O)C(C)(CO)CO)nn3)O2)c1` [ImAGpD2OH], for which the Tcp in data set [1] (hSGQ at pH 5) stood at 42 °C; in data set [1] (oSGQ at pH 7) it was 15 °C. Further, the “shift of ΔTcp” value was found to be 13 °C in data set [1] (hSGQ at pH 5, relative to ImAGhD2OH) and 10 °C in data set [1] (oSGQ at pH 7, relative to ImAGhD2OH). Besides, the ΔHTm is recorded as 57.01 kcal/mol in data set [2] (ImAGpD2OH, pH 5.0) and 101.3 kcal/mol in data set [2] (ImAGpD2OH, pH 7.0). Besides, the ΔHTt came out at 8.41 kcal/mol in data set [2] (ImAGpD2OH, pH 5.0) and 4.36 kcal/mol in data set [2] (ImAGpD2OH, pH 7.0). Further, the ΔSTm in data set [2] (ImAGpD2OH, pH 5.0) was determined as 0.808 kcal/mol · ° C; in data set [2] (ImAGpD2OH, pH 7.0), 1.805 kcal/mol · ° C. Also, the ΔSTt came to 0.167 kcal/mol · ° C in data set [2] (ImAGpD2OH, pH 5.0) and 0.505 kcal/mol · ° C in data set [2] (ImAGpD2OH, pH 7.0). For the same compound, the Tt in data set [2] (ImAGpD2OH, pH 5.0, aqueous solution) is 50.5 °C and 50.45 °C; in data set [2] (ImAGpD2OH, pH 7.0, aqueous solution) it was 8.6 °C and 8.631 °C. For the same compound, the “ΔGT:” value was 5.07 kcal/mol in data set [2] (setting [11]) and -5.74 kcal/mol in data set [2] (setting [12]). In addition, the values for the ΔGTm in data set [2] (setting [11]) and in data set [2] (setting [12]) were 40.85 kcal/mol and 65.20 kcal/mol, respectively. In addition, the Tm in data set [2] (ImAGpD2OH, pH 5.0, melting of SGQ assembly) came out at 70.52 °C; in data set [2] (ImAGpD2OH, pH 7.0, melting of SGQ assembly), 56.11 °C. The pKa in data set [3] is 5.7.

Consider `COc1cccc2c1C(=O)c1c(O)c3c(c(O)c1C2=O)C[C@@](O)(C(=O)CO)C[C@@H]3O[C@H]1C[C@H](N)[C@H](O)[C@H](C)O1` [DOX, doxorubicin], for which, in data set [5], the “cytotoxicity (MTT)” value was “cytotoxic”.
